{"source": "patent US20120269797A1", "about": "“METHOD FOR INHIBITING THE MATURATION OF DENDRITIC CELLS” (priority 2009, published 2012)", "key": {"[1]": {"system": "murine DCs", "assay": "maturation of murine dendritic cells, surface molecules by FACS analysis", "type": "cell-based", "settings": "different concentrations, Day 8 to Day 10, matured last 16 hours with LPS; FIG. 1", "procedure": "Murine DCs were incubated with different concentrations of the proteasome inhibitor Velcade® from Day 8 to Day 10, and were matured during the last 16 hours, in the presence of LPS. In order to determine the phenotypic DC maturation, in other words the increase in the expression level of specific cell surface molecules, the cells were subsequently characterized using monoclonal antibodies and FACS analysis. […] However, only completely matured DCs are able to induce potent immune responses. The control (mock) remained untreated."}, "[2]": {"system": "human DCs", "settings": "two concentrations added Day 5, matured two days with maturation cocktail; FIG. 2", "procedure": "Immature human DCs were mixed with two different concentrations of Velcade® on Day 5, and subsequently matured for another two days using the maturation cocktail. Subsequently, the expression of the surface molecules that are typical for the maturation of human DCs was analyzed. […] The control (mock) remained untreated."}, "[3]": {"system": "murine DCs / allogeneic murine T cells", "assay": "DC-mediated T cell proliferation, allogeneic murine T cells with TNF-matured murine DCs", "type": "cell-based", "settings": "72 hours, three different concentrations; FIG. 3", "procedure": "Allogeneic murine T cells were incubated with TNF-matured murine DCs for 72 hours, in the presence of three different concentrations of Velcade®."}, "[4]": {"system": "human DCs", "assay": "DC-mediated T cell stimulation by MLR assay, human DCs", "type": "cell-based", "settings": "DCs incubated during maturation; FIG. 4", "procedure": "The T cell stimulatory capacity of mature DCs can be tested in vitro by means of the so-called “mixed leukocyte reaction” (MLR) assay. […] Human DCs were incubated with Velcade® during maturation and subsequently, the DC-mediated T cell stimulation was investigated by means of MLR assay."}, "[5]": {"system": "murine (DC:T) cell co-cultures", "assay": "cytokine and chemokine production in murine DC/T cell co-cultures", "type": "cell-based", "settings": "72 hours, different concentrations; FIG. 5", "procedure": "The production of INFy and MCP-1 was determined from cell culture top fractions of murine (DC:T) cell co-cultures. For this purpose, DCs were incubated with allogeneic T cells, in the presence of different concentrations of Velcade®, for 72 hours. […] The control (mock) remained untreated."}, "[6]": {"system": "human DC/T cell co-cultures", "assay": "cytokine production in human DC/T cell co-cultures (CBA technology)", "type": "cell-based", "procedure": "During DC-mediated T cell stimulation, the production of cytokines (among them IFN, IL-2, IL-6, TNF) takes place, which can be detected in the culture top fraction. […] Immature human […] were incubated with Velcade®, matured for 48 hours, and subsequently cultivated together with allogeneic human T cells for another 72 hours. Subsequently, cell culture top fractions were taken and the release of pro-inflammatory cytokines was analyzed by means of CBA technology. […] The control (mock) remained untreated."}, "[7]": {"system": "mature DCs", "assay": "mixed leukocyte reaction (MLR) assay, T cell stimulatory capacity of mature DCs", "type": "cell-based", "settings": "see FIGS. 3 and 4", "from_the_text": "The T cell stimulatory capacity of mature DCs can be tested in vitro by means of the so-called “mixed leukocyte reaction” (MLR) assay. […] This functional test therefore reflects the phenotypic effects of the PI treatment—namely the blockade of full maturation of the DCs—very well."}, "[8]": {"system": "murine DCs generated ex vivo", "experimental": "In order to test the effect of PIs also in vivo, Velcade® was applied to mice in vivo, then bone marrow was isolated and the typical bone marrow DCs were generated from this.\nC57B1/6 mice were injected with 0.75 mg/kg Velcade® i.v. three times. The injection took place within five days, with an interval of one day, in each instance. An hour after the last injection, removal of the bone marrow from femur and tibia took place to generate the murine DCs. On Day 8 of cultivation, the cells were matured with LPS. On the subsequent day, the expression of the surface molecules was investigated by means of FACS analysis."}, "[9]": {"settings": "0.75 mg/kg i.v. three times, FIG. 7b"}}}
{"smiles": "CC(C)C[C@H](NC(=O)[C@H](Cc1ccccc1)NC(=O)c1cnccn1)B(O)O", "note": "[Velcade®]", "values": [{"measurement": "surface expression of CD25, CD40, CD80, CD86 and CD83", "setting": "[1]", "value": "very clearly reduces"}, {"measurement": "expression of CD80, CCR7, CD25, MHC I and CD83", "setting": "[2]", "value": "clear reduction"}, {"measurement": "DC-mediated T cell proliferation", "setting": "[3]", "value": "reduces the DC-mediated T cell proliferation in a manner that is dependent on dose"}, {"measurement": "DC-mediated T cell stimulation (stimulatory capacity of DCs)", "setting": "[4]", "value": "clear reduction in their stimulatory capacity"}, {"measurement": "expression of INFy and MCP-1 in cell culture top fractions", "setting": "[5]", "value": "clearly reduced expression"}, {"measurement": "cytokine production (IFN, IL-2, IL-6, TNF) during DC-mediated T cell stimulation", "setting": "[6]; culture top fraction, summary of FIGS. 5 and 6 (murine and human)", "value": "able to block this cytokine production, as a function of concentration"}, {"measurement": "secretion of IL-2, IL-6, INFy and TNF", "setting": "[6]; matured 48 hours, co-culture with allogeneic T cells 72 hours, FIG. 6", "value": "clearly reduced secretion"}, {"measurement": "DC-mediated T cell stimulation", "setting": "[7]", "value": "able to block DC-mediated T cell stimulation"}, {"measurement": "surface expression of CD25, CD40, CD80 and CD86", "setting": "[8]; 0.75 mg/kg i.v. three times, DCs matured with LPS on Day 8, FIG. 7a", "value": "reduction in the surface expression"}, {"measurement": "expression of MHC Class II molecules", "setting": "[8]; [9]", "value": "also reduced"}, {"measurement": "percentage of MHC II highly expressing cells:MHC II interm. expressing cells", "setting": "[8]; [9]", "value": "shifted in favor of the MCH II interm. expressing cells"}, {"measurement": "population of the mature DCs (CD40, CD25, CD83 highly expressing)", "setting": "[8]; applied in vivo to mice, TNF-stimulated and LPS-stimulated DCs, FIG. 7", "value": "reduces the population of the mature DCs"}]}
